The numbers were not newly measured in patent US4386074A, “LRF Antagonists” (The Salk Institute for Biological Studies, priority 1981, dated 1983), which cites them from elsewhere.

[ ]: non-standard residue; d: D form. pGlu = O=C1CC[C@@H](C(=O)O)N1

The test system of the data set is release of LH and other gonadotropins by the pituitary gland. The conditions noted are these: D-Ala6 versus Gly6 des-His2 peptide.

On to [pGlu]WSY[dA]LRPG-NH2, for which the “potency as inhibitor of the release of gonadotropins relative to the same peptide with Gly in the 6-position” value is listed as 4 times.
